Laboratory results: publication PMC12150326 (The Journal of Organic Chemistry, 2025)
Where two headings read alike, the source gives them in different places.

Legend:
[1] = test system: bovine brain tubulin; test: Tubulin polymerization inhibition; format: biochemical; details: 10 μM tubulin
Procedure, shortened: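 10 μM tubulin incubated 30 min at 37 °C in polymerization-promoting buffer (1 M NaGlutamate, 0.1 M Mes, 1 mM MgCl2, 0.5 mM GTP, pH 6.9) with 3.3 or 33 μM compound. After 100,000g spin for 8 min, polymerization taken as pelletable protein lost from supernatant.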

[2] = test system: 786-0; format: cell-based, human
Protocol: (§1) (aR)-6, (aS)-6, (aS)-iso -6, and (aR)-iso -6 were submitted to the 60 Cell Screen panel and evaluated at 5 doses (100 μM, 10 μM, 1 μM, 0.1 μM, and 0.01 μM). […] The complete report from this submission is available at the publisher’s Web site as a separate Supporting Information file. For COMPARE analysis, TGI levels of response for (aR)-DM-MTC (6) and (aS)-iso-DM-MTC were compared to those of several established tubulin inhibitors previously tested in the NCI-60 screen.

[3] = test system: A498; format: cell-based, human
Protocol: as §1

[4] = test system: A549/ATCC; format: cell-based, human
Protocol: as §1

[5] = test system: ACHN; format: cell-based, human
Protocol: as §1

[6] = test system: BT-549; format: cell-based, human
Protocol: as §1

[7] = test system: CCRF-CEM; format: cell-based, human
Protocol: as §1

[8] = test system: HCC-2998; format: cell-based, human
Protocol: as §1

[9] = test system: HOP-92; format: cell-based, human
Protocol: as §1

[10] = test system: MALME-3M; format: cell-based, human
Protocol: as §1

[11] = test system: MCF7; format: cell-based, human
Protocol: as §1

[12] = test system: MDA-MB-468; format: cell-based, human
Protocol: as §1

[13] = test system: NCI 60 cell lines; format: cell-based, human
Protocol: as §1

[14] = test system: NCI-H460; format: cell-based, human
Protocol: as §1

[15] = test system: SF-295; format: cell-based, human
Protocol: as §1

[16] = test system: SF-539; format: cell-based, human
Protocol: as §1

[17] = test system: SK-MEL-5; format: cell-based, human
Protocol: as §1

[18] = test system: SK-OV-3; format: cell-based, human
Protocol: as §1

[19] = test system: SNB-19; format: cell-based, human
Protocol: as §1

[20] = test system: SNB-75; format: cell-based, human
Protocol: as §1

[21] = test system: SR; format: cell-based, human
Protocol: as §1

[22] = test system: T-47D; format: cell-based, human
Protocol: as §1

[23] = test system: TK-10; format: cell-based, human
Protocol: as §1

[24] = test system: UO-31; format: cell-based, human
Protocol: as §1

## COc1cc(C)c(-c2ccc(OC)c(=O)cc2C)c(OC)c1OC (single isomer, unassigned) [(aR)-6]
[1]; 3.3 μM compound
  Polymerization Inhibition (%) 3.3 μM: 0%
[1]; 33 μM compound
  Polymerization Inhibition (%) 33 μM: 100%
[2]
  Log10GI50: -5.35 Molar
  Log10LC50: > -4.00 Molar
  Log10TGI: > -4.00 Molar
[2]; Homo sapiens
  GI50: 4470 nM
[2]; listed as (aR)-DM-MTC
  Log10GI50: -5.35 Molar
[3]
  Log10GI50: -6.10 Molar
  Log10LC50: > -4.00 Molar
  Log10TGI: -5.34 Molar
[3]; Homo sapiens
  GI50: 790 nM
[3]; listed as (aR)-DM-MTC
  Log10GI50: -6.1 Molar
[4]
  Log10GI50: -5.42 Molar
  Log10LC50: > -4.00 Molar
  Log10TGI: > -4.00 Molar
[4]; Homo sapiens
  GI50: 3800 nM
[4]; listed as (aR)-DM-MTC
  Log10GI50: -5.42 Molar
[5]
  Log10GI50: -5.27 Molar
  Log10LC50: > -4.00 Molar
  Log10TGI: > -4.00 Molar
[5]; Homo sapiens
  GI50: 5370 nM
[5]; listed as (aR)-DM-MTC
  Log10GI50: -5.27 Molar
[6]
  Log10GI50: -5.69 Molar
  Log10LC50: > -4.00 Molar
  Log10TGI: -5.18 Molar
[6]; Homo sapiens
  GI50: 2040 nM
[6]; listed as (aR)-DM-MTC
  Log10GI50: -5.69 Molar
[7]
  Log10GI50: -5.71 Molar
  Log10LC50: > -4.00 Molar
  Log10TGI: > -4.00 Molar
[7]; Homo sapiens
  GI50: 1950 nM
[7]; listed as (aR)-DM-MTC
  Log10GI50: -5.71 Molar
[8]
  Log10GI50: -5.55 Molar
  Log10LC50: > -4.00 Molar
  Log10TGI: > -4.00 Molar
[8]; Homo sapiens
  GI50: 2820 nM
[8]; listed as (aR)-DM-MTC
  Log10GI50: -5.55 Molar
[9]
  Log10GI50: -5.45 Molar
  Log10LC50: > -4.00 Molar
  Log10TGI: > -4.00 Molar
[9]; Homo sapiens
  GI50: 3550 nM
[9]; listed as (aR)-DM-MTC
  Log10GI50: -5.45 Molar
[10]
  Log10LC50: > -4.00 Molar
  Log10TGI: > -4.00 Molar
[11]
  Log10GI50: -6.11 Molar
  Log10LC50: > -4.00 Molar
  Log10TGI: > -4.00 Molar
[11]; Homo sapiens
  GI50: 780 nM
[11]; listed as (aR)-DM-MTC
  Log10GI50: -6.11 Molar
[12]
  Log10GI50: -5.97 Molar
  Log10LC50: > -4.00 Molar
  Log10TGI: > -4.00 Molar
[12]; Homo sapiens
  GI50: 1070 nM
[12]; listed as (aR)-DM-MTC
  Log10GI50: -5.97 Molar
[13]
  fold less potent than colchicine, growth inhibition: 10 to 50 fold
[13]; NCI-60, GI50 level
  selectivity range: 2.39 log units
[13]; NCI-60 cell line selectivity, listed as (aR)-DM-MTC (6)
  Log10 Range at TGI: 2.13
[13]; NCI-60 mean
  GI50: 2400 nM
[13]; NCI-60 mean total growth inhibition
  Mean TGI: 63000 nM
[13]; mean graph
  Delta Log10GI50: 0.95
  Delta Log10LC50: 0.73
  Delta Log10TGI: 1.93
  Range Log10GI50: 2.39
  Range Log10LC50: 0.74
  Range Log10TGI: 2.13
[13]; mean graph midpoint
  _MID Log10GI50: -5.62 Molar
  _MID Log10LC50: -4.01 Molar
  _MID Log10TGI: -4.2 Molar
[14]
  Log10GI50: -5.55 Molar
  Log10LC50: > -4.00 Molar
  Log10TGI: > -4.00 Molar
[14]; Homo sapiens
  GI50: 2820 nM
[14]; listed as (aR)-DM-MTC
  Log10GI50: -5.55 Molar
[15]
  Log10GI50: -5.76 Molar
  Log10LC50: > -4.00 Molar
  Log10TGI: > -4.00 Molar
[15]; Homo sapiens
  GI50: 1740 nM
[15]; listed as (aR)-DM-MTC
  Log10GI50: -5.76 Molar
[16]
  Log10GI50: -5.65 Molar
  Log10LC50: > -4.00 Molar
  Log10TGI: > -4.00 Molar
[16]; Homo sapiens
  GI50: 2240 nM
[16]; listed as (aR)-DM-MTC
  Log10GI50: -5.65 Molar
[17]
  Log10GI50: -5.50 Molar
  Log10LC50: > -4.00 Molar
  Log10TGI: -4.42 Molar
[17]; Homo sapiens
  GI50: 3160 nM
[17]; listed as (aR)-DM-MTC
  Log10GI50: -5.5 Molar
[18]
  Log10GI50: -5.59 Molar
  Log10LC50: > -4.00 Molar
  Log10TGI: > -4.00 Molar
[18]; Homo sapiens
  GI50: 2570 nM
[18]; listed as (aR)-DM-MTC
  Log10GI50: -5.59 Molar
[19]
  Log10GI50: -5.53 Molar
  Log10LC50: > -4.00 Molar
  Log10TGI: > -4.00 Molar
[19]; Homo sapiens
  GI50: 2950 nM
[19]; listed as (aR)-DM-MTC
  Log10GI50: -5.53 Molar
[20]
  Log10GI50: -6.04 Molar
  Log10LC50: > -4.00 Molar
[20]; Homo sapiens
  GI50: 910 nM
[20]; listed as (aR)-DM-MTC
  Log10GI50: -6.04 Molar
[21]
  Log10GI50: -6.44 Molar
  Log10LC50: > -4.00 Molar
  Log10TGI: > -4.00 Molar
[21]; Homo sapiens
  GI50: 360 nM
[21]; listed as (aR)-DM-MTC
  Log10GI50: -6.44 Molar
[22]
  Log10GI50: -5.15 Molar
  Log10LC50: > -4.00 Molar
  Log10TGI: > -4.00 Molar
[22]; Homo sapiens, T47D
  GI50: 7080 nM
[22]; listed as (aR)-DM-MTC
  Log10GI50: -5.15 Molar
[23]
  Log10GI50: -4.18 Molar
  Log10LC50: > -4.00 Molar
  Log10TGI: > -4.00 Molar
[23]; Homo sapiens
  GI50: 66100 nM
[23]; listed as (aR)-DM-MTC
  Log10GI50: -4.18 Molar
[24]
  Log10GI50: -5.16 Molar
  Log10LC50: > -4.00 Molar
  Log10TGI: > -4.00 Molar
[24]; Homo sapiens
  GI50: 6920 nM
[24]; listed as (aR)-DM-MTC
  Log10GI50: -5.16 Molar
